Reference: US9427474B2, “Conjugates of a polymer, a bisphosphonate and an anti-angiogenesis agent and uses thereof in the treatment and monitoring of bone related diseases” (Ramot at Tel-Aviv University Ltd., priority 2008, dated 2016)
HPMA copolymer = not defined here

Experiments:
[1] = system: HUVEC; assay: HUVEC cell proliferation assay; type: cell-based, human; details: for IC50: 48 hours incubation, Paclitaxel-equivalent, read-out: IC50, proliferation of HUVECs
Description: Human Umbilical vain endothelial cells (HUVEC) were plated onto 24-well plate (1×10^4 cells/well) in growth factors reduced media, (EBM-2, Cambrex, USA) supplemented with 5% Fetal Bovine Serum (FBS). Following 24 hours of incubation (37° C.; 5% CO2) medium was replaced with EGM-2 (Cambrex, USA). PC3 cells were plated onto 96 well plate (2×10^3 cells/well) in DMEM supplemented with 5% FBS and incubated for 24 hours (37° C.; 5% CO2). Following 24 hours of incubation medium was replaced with DMEM containing 10% FBS. […] Control cells were grown with or without growth factors. After incubation HUVEC and PC3 were counted by Coulter Counter or by XTT respectively.

[2] = system: human prostate cell line PC3; assay: PC3 cell proliferation assay (XTT); type: cell-based
Description: Human Umbilical vain endothelial cells (HUVEC) were plated onto 24-well plate (1×10^4 cells/well) in growth factors reduced media, (EBM-2, Cambrex, USA) supplemented with 5% Fetal Bovine Serum (FBS). Following 24 hours of incubation (37° C.; 5% CO2) medium was replaced with EGM-2 (Cambrex, USA). PC3 cells were plated onto 96 well plate (2×10^3 cells/well) in DMEM supplemented with 5% FBS and incubated for 24 hours (37° C.; 5% CO2). Following 24 hours of incubation medium was replaced with DMEM containing 10% FBS. Cells were challenged with a combination of paclitaxel and ALN, a combination of Paclitaxel-FK and ALN, with each drug alone, and with […] (SEQ ID NO: 12), at serial concentrations for 72 hours. Control cells were grown with or without growth factors. After incubation HUVEC and PC3 were counted by Coulter Counter or by XTT respectively.

[3] = system: DA3 murine mammary cancer cells; assay: Antitumor activity in vivo, mCherry-labeled DA3 tumors in the tibia; parameters: species or system Balb/c female mice; details: 9 days of treatment
Description: 9 Balb/c female mice (n=3 per group) were injected intra tibia with 5×10^5 mCherry-labeled DA3 murine mammary cancer cells. […] (SEQ ID NO: 12) or with vehicle (1:1:8 cremophor EL:ethanol:saline). Therapy was initiated 10 days after tumor cells injection. Tumor progression was monitored by CRI™ Maestro non-invasive intravital imaging system. At termination, tibias were weighed and analyzed. Data is expressed as mean±standard error of the mean (s.e.m.).
Balb/c female mice bearing mCherry-labeled DA3 tumors in the tibia were treated with free and conjugated ALN and PTX (1:1.6, 1.25 mg/kg ALN and 2 mg/kg PTX, every day). Tumor growth rates were measured and monitored by mCherry fluorescence signal using CRI™ Maestro non-invasive intravital imaging system.

HPMA copolymer-GGFK-PTX conjugate: cathepsin B-enzymatically cleavable HPMA copolymer conjugate of paclitaxel ({HPMA copolymer}-GGFK-paclitaxel; reading uncertain; also: conjugated to HPMA copolymer, conjugated to paclitaxel (PTX))
IC50 [1]: ~100 nM

NCCCC(O)(P(=O)(O)O)P(=O)(O)O [ALN, (4-amino-1-hydroxybutylidene)bisphosphonic acid]
concentration at which proliferation of HUVEC was inhibited (only the highest dose tested) ([1]; ALN alone): 6.25 µM
additional effect on proliferation of HUVEC when combined with Paclitaxel or Paclitaxel-FK ([1]; tested concentrations 10 μM-0.001 nM): no additional effect
effect on the proliferation of PC3 cells ([2]; concentrations tested 0.01 nM-10 μM, alone or combined with PTX or PTX-FK): no effect

CC(=O)O[C@H]1C(=O)[C@@]2(C)[C@H]([C@H](OC(=O)c3ccccc3)[C@]3(O)C[C@H](OC(=O)[C@H](O)[C@@H](NC(=O)c4ccccc4)c4ccccc4)C(C)=C1C3(C)C)[C@]1(OC(C)=O)CO[C@@H]1C[C@@H]2O [PTX, paclitaxel]
IC50 ([2]; Homo sapiens, PC-3, 72 hours, PTX alone, read-out: IC50, proliferation of PC3 cells): 1000 nM
antitumor effect (in words) [3]: no therapeutic effect
antitumor effect (in words) ([3]; listed as Free PTX): no antitumor effect
antitumor effect (in words) ([3]; listed as free PTX): unaffected

HPMA copolymer-GGGG-PTX conjugate ({HPMA copolymer}-GGGG-paclitaxel; reading uncertain; also: conjugated to HPMA copolymer, conjugated to paclitaxel (PTX))
concentration inhibiting HUVEC proliferation relative to cathepsin B cleavable HPMA-GGFK-PTX conjugate ([1]; 48 hours): 2 logs
IC50 [1]: ~10000 nM
